# Columns and labels:
# [1] = test system: dd-strain male mice; test: Acute toxicity test (minimum lethal dose, oral); type: in vivo; details: oral administration, three mice per group, mortality seven days after administration
# Procedure: Test compounds were orally administered to groups of dd-strain male mice weighing 20 ± 1 g, each group consisting of three mice. Seven days after the administration, minimum lethal dose (MLD) of each compound was determined by observing the mortality.
# [2] = biological target: T1, A₂ receptor (Rattus norvegicus, UniProt P30543); test: Adenosine A₂ receptor binding test (³H-NECA binding); details: ³H-NECA binding, rat corpus striatum, read-out: Inhibition (%) A₂ Receptor; for inhibition at 100 µM: 10⁻⁴M; for inhibition at 10 µM: 10⁻⁵M; for inhibition at 1 µM: 10⁻⁶M; for inhibition at 0.1 µM: 10⁻⁷M
# T1 construct: from tissue; host or cells: rat corpus striatum membrane preparation
# Procedure: The similar procedure as in the above-described adenosine A₁ receptor binding test was repeated using rat corpus striatum to obtain the final precipitate of the tissue thereof. The precipitate was suspended in 50 mM Tris HCl buffer containing 10 mM magnesium chloride and 0.02 unit/mg tissue of adenosine deaminase (manufactured by Sigma Co.) to give a tissue concentration of 5 mg (wet weight)/ml.
# The mixture solution was allowed to stand at 25°C for 120 minutes and then treated in the same manner as in the adenosine A₁ receptor binding test to determine the radioactivity bound to the A₂ receptors.
# The inhibition rate of the test compound against the binding of A₂ receptor (³H-NECA binding) was calculated by the following equation: [formula] [Notes] • 1.
# T1 sequence (P30543 whole entry): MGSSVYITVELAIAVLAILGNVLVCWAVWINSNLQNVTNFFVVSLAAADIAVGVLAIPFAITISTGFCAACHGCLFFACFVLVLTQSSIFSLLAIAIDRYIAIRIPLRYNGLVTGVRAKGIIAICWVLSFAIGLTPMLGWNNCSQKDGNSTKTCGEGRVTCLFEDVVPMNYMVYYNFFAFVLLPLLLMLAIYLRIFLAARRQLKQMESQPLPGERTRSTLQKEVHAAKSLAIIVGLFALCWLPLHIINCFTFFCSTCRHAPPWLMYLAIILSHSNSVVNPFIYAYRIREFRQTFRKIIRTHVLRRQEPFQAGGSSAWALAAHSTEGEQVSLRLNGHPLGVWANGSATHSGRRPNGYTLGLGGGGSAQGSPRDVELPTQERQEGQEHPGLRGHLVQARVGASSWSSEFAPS
Structure (SMILES),MLD [1] [mg/kg],inhibition at 100 µM [2] [%],inhibition at 10 µM [2] [%],inhibition at 1 µM [2] [%],inhibition at 0.1 µM [2] [%]
"CCn1c(=O)c2[nH]c(/C=C/c3cccc(OC)c3OC)nc2n(CC)c1=O [Compound 3, (E)-8-(2,3-Dimethoxystyryl)-1,3-diethylxanthine]",> 300,–,–,–,–
"CCn1c(=O)c2[nH]c(/C=C/c3ccc(OC)cc3OC)nc2n(CC)c1=O [Compound 5, (E)-8-(2,4-Dimethoxystyryl)-1,3-diethylxanthine]",> 100,–,–,–,–
"CCn1c(=O)c2[nH]c(/C=C/c3cc(C)c(OC)cc3C)nc2n(CC)c1=O [Compound 11, (E)-1,3-Diethyl-8-(4-methoxy-2,5-dimethylstyryl)xanthine]",> 300,–,–,–,–
"COc1cccc(/C=C/c2nc3c(=O)n(C)c(=O)n(C)c3[nH]2)c1OC [Compound 25, (E)-8-(2,3-Dimethoxystyryl)theophylline]",> 100,70,76,–,–
"COc1cccc(/C=C/c2nc3c(c(=O)n(C)c(=O)n3C)n2C)c1OC [Compound 26, (E)-8-(2,3-Dimethoxystyryl)caffeine]",> 300,79,75,59,27
"COc1ccc(/C=C/c2nc3c([nH]2)c(=O)n(C)c(=O)n3C)c(OC)c1 [Compound 27, (E)-8-(2,4-Dimethoxystyryl)theophylline]",> 100,90,89,–,–
"COc1ccc(/C=C/c2nc3c(c(=O)n(C)c(=O)n3C)n2C)c(OC)c1 [Compound 28, (E)-8-(2,4-Dimethoxystyryl)caffeine]",> 300,99,86,80,46
"COc1cc(C)c(/C=C/c2nc3c([nH]2)c(=O)n(C)c(=O)n3C)cc1C [Compound 29, (E)-8-(4-Methoxy-2,5-dimethylstyryl)theophylline]",> 100,–,–,–,–
"COc1cc(C)c(/C=C/c2nc3c(c(=O)n(C)c(=O)n3C)n2C)cc1C [Compound 30, (E)-8-(4-Methoxy-2,5-dimethylstyryl)caffeine]",> 100,–,–,–,–
"CCn1c(=O)c2[nH]c(/C=C/c3cc(C)ccc3C)nc2n(CC)c1=O [Compound 33, (E)-8-(2,5-Dimethylstyryl)-1,3-diethylxanthine]",> 300,92,93,–,–
"CCOc1ccc(/C=C/c2nc3c([nH]2)c(=O)n(CC)c(=O)n3CC)cc1 [Compound 35, (E)-8-(4-Ethoxystyryl)-1,3-diethylxanthine]",> 100,–,–,71,54
"CCCOc1ccc(/C=C/c2nc3c([nH]2)c(=O)n(CC)c(=O)n3CC)cc1 [Compound 37, (E)-1,3-Diethyl-8-(4-propoxystyryl)xanthine]",> 100,–,–,60,56
"CCn1c(=O)c2[nH]c(/C=C/c3ccccc3OC)nc2n(CC)c1=O [Compound 45, (E)-1,3-Diethyl-8-(2-methoxystyryl)xanthine]",> 100,–,–,–,–
"CCn1c(=O)c2c(nc(/C=C/c3ccccc3OC)n2C)n(CC)c1=O [Compound 46, (E)-1,3-Diethyl-8-(2-methoxystyryl)-7-methylxanthine]",> 100,–,–,–,–
"CCn1c(=O)c2[nH]c(/C=C/c3ccc(OC)c(OC)c3Cl)nc2n(CC)c1=O [Compound 49, (E)-8-(2-Chloro-3,4-dimethoxystyryl)-1,3-diethylxanthine]",> 100,112,108,76,73
"COc1ccc(/C=C/c2nc3c([nH]2)c(=O)n(C)c(=O)n3C)c(Cl)c1OC [Compound 51, (E)-8-(2-Chloro-3,4-dimethoxystyryl)theophylline]",> 100,91,88,–,–
"CCn1c(=O)c2[nH]c(/C=C/c3ccc(F)c(F)c3)nc2n(CC)c1=O [Compound 53, (E)-8-(3,4-Difluorostyryl)-1,3-diethylxanthine]",> 300,–,–,–,–
"CCn1c(=O)c2[nH]c(/C=C/c3ccc(OC)c(Br)c3)nc2n(CC)c1=O [Compound 55, (E)-8-(3-Bromo-4-methoxystyryl)-1,3-diethylxanthine]",> 100,81,77,65,56
"COc1ccc(/C=C/c2nc3c([nH]2)c(=O)n(C)c(=O)n3C)cc1Br [Compound 57, (E)-8-(3-Bromo-4-methoxystyryl)theophylline]",> 100,–,–,–,–
"COc1ccc(/C=C/c2nc3c(c(=O)n(C)c(=O)n3C)n2C)cc1Br [Compound 58, (E)-8-(3-Bromo-4-methoxystyryl)caffeine]",> 300,78,84,–,–

Structure (SMILES),MLD [1] [mg/kg],inhibition at 100 µM [2] [%],inhibition at 10 µM [2] [%],inhibition at 1 µM [2] [%],inhibition at 0.1 µM [2] [%]
"CCn1c(=O)c2[nH]c(/C=C/c3cc(OC)c(OC)cc3Br)nc2n(CC)c1=O [Compound 59, (E)-8-(2-Bromo-4,5-dimethoxystyryl)-1,3-diethylxanthine]",> 100,–,–,–,–
"CCn1c(=O)c2c(nc(/C=C/c3cc(OC)c(OC)cc3Br)n2C)n(CC)c1=O [Compound 60, (E)-8-(2-Bromo-4,5-dimethoxystyryl)-1,3-diethyl-7-methylxanthine]",> 100,84,75,–,–
"CCn1c(=O)c2[nH]c(/C=C/c3cc(OC)c(OC)cc3[N+](=O)[O-])nc2n(CC)c1=O [Compound 61, (E)-8-(4,5-Dimethoxy-2-nitrostyryl)-1,3-diethylxanthine]",> 100,–,–,–,–
"CCn1c(=O)c2c(nc(/C=C/c3cc(OC)c(OC)cc3[N+](=O)[O-])n2C)n(CC)c1=O [Compound 62, (E)-8-(4,5-Dimethoxy-2-nitrostyryl)-1,3-diethyl-7-methylxanthine]",> 300,–,–,–,–
"CCn1c(=O)c2[nH]c(/C=C/c3cccc(Cl)c3)nc2n(CC)c1=O [Compound 69, (E)-8-(3-Chlorostyryl)-1,3-diethylxanthine]",> 100,–,–,–,–
"CCn1c(=O)c2[nH]c(/C(C)=C/c3ccccc3)nc2n(CC)c1=O [Compound 71, (E)-1,3-Diethyl-8-(α-methylstyryl)xanthine]",> 100,–,–,–,–
"CCn1c(=O)c2c(nc(/C(C)=C/c3ccccc3)n2C)n(CC)c1=O [Compound 72, (E)-1,3-Diethyl-7-methyl-8-(α-methylstyryl)xanthine]",> 300,–,–,–,–
"CCn1c(=O)c2[nH]c(/C=C/c3ccc(C(F)(F)F)cc3)nc2n(CC)c1=O [Compound 73, (E)-1,3-Diethyl-8-(4-trifluoromethylstyryl)xanthine]",> 100,–,–,–,–
"CCn1c(=O)c2[nH]c(/C(F)=C\c3ccccc3)nc2n(CC)c1=O [Compound 75, (E)-1,3-Diethyl-8-(α-fluorostyryl)xanthine]",> 100,–,–,–,–
"CCn1c(=O)c2[nH]c(/C=C/c3cc(C(F)(F)F)cc(C(F)(F)F)c3)nc2n(CC)c1=O [Compound 85, (E)-8-[3,5-Bis(trifluoromethyl)styryl]-1,3-diethylxanthine]",> 100,–,–,–,–
"CCn1c(=O)c2c(nc(/C=C/c3cc(F)cc(F)c3)n2C)n(CC)c1=O [Compound 88, (E)-8-(3,5-Difluorostyryl)-1,3-diethyl-7-methylxanthine]",> 100,–,–,–,–
"CCn1c(=O)c2[nH]c(/C=C/c3ccc(-c4ccccc4)cc3)nc2n(CC)c1=O [Compound 100, (E)-1,3-Diethyl-8-(4-phenylstyryl)xanthine]",> 100,–,–,–,–
"CCn1c(=O)c2[nH]c(/C=C/c3ccc(F)c(Cl)c3)nc2n(CC)c1=O [Compound 104, (E)-8-(3-Chloro-4-fluorostyryl)-1,3-diethylxanthine]",> 100,–,–,–,–
"CCn1c(=O)c2c(nc(/C=C/c3ccc(OC)c(O)c3)n2C)n(CC)c1=O [Compound 111, (E)-1,3-Diethyl-8-(3-hydroxy-4-methoxystyryl)-7-methylxanthine]",> 100,–,–,–,–
"CCn1c(=O)c2c(nc(/C=C/c3ccc(OCCCCN)cc3)n2C)n(CC)c1=O [Compound 116, (E)-8-[4-(4-Aminobutoxy)styryl]-1,3-diethyl-7-methylxanthine]",> 100,–,–,–,–
"CCOC(=O)COc1ccc(/C=C/c2nc3c(c(=O)n(CC)c(=O)n3CC)n2C)cc1 [Compound 117, (E)-8-(4-Ethoxycarbonylmethoxystyryl)-1,3-diethyl-7-methylxanthine]",> 100,–,–,–,–
"CCn1c(=O)c2c(nc(/C=C/c3ccc(OCC(=O)O)cc3)n2C)n(CC)c1=O [Compound 118, (E)-8-(4-Carboxymethoxystyryl)-1,3-diethyl-7-methylxanthine]",> 100,–,–,–,–
"CCn1c(=O)c2[nH]c(/C=C/c3cccc(Oc4ccccc4)c3)nc2n(CC)c1=O [Compound 119, (E)-1,3-Diethyl-8-(3-phenoxystyryl)xanthine]",> 100,–,–,–,–
"CCn1c(=O)c2[nH]c(/C=C/c3ccc(O)cc3)nc2n(CC)c1=O [Compound 121, (E)-1,3-Diethyl-8-(4-hydroxystyryl)xanthine]",> 100,–,–,–,–
"CCn1c(=O)c2c(nc(/C=C/c3ccc(O)c(C)c3C)n2C)n(CC)c1=O [Compound 122, (E)-1,3-Diethyl-8-(4-hydroxy-2,3-dimethylstyryl)-7-methylxanthine]",> 100,–,–,–,–

# Reference: patent publication EP0590919A1, “Therapeutic agents for parkinson's disease” (KYOWA HAKKO KOGYO CO., LTD., priority 1992, dated 1994)
